# Data as given in article PMC6006164, “Natural cyclopeptide RA-V inhibits the NF-κB signaling pathway by targeting TAK1” (Cell Death & Disease, 2018).
# Columns and labels:
# [1] = system: NF-κB signaling pathway; test: NF-κB-dependent luciferase reporter (5×κB-luciferase/pTK-Renilla), TNF-α-induced, HEK293T cells; format: cell-based; conditions: HEK293T; RA-V 6 h, then 10 ng/mL TNF-α 2 h; three independent experiments; read-out: IC50, NF-κB-dependent luciferase reporter
# Method: HEK293T or HeLa cells were seeded in 24-well plates and transiently transfected with the 5 × κB-luciferase and pTK-Renilla reporters using Lipofectamine 2000 (Invitrogen) for 18 h. The cells were then incubated with different concentrations of the compounds for the indicated times and subsequently stimulated with 10 ng/mL TNF-α for 2 h. The luciferase activity in the cell lysates was analyzed using the Dual Luciferase Reporter Assay System (Promega). The luciferase reporter assays were performed as previously described.
# Supplementary Figure 1. RA-V has the best inhibitory effect on NF-κB signaling pathway among RAs. (a-b) HEK293T cells were transfected with the 5×κB-luciferase and pTK-Renilla reporters. Twenty-four hours after transfection, the cells were incubated with various concentrations of the indicated compounds for 6 h and then treated with 10 ng/ml TNF-α for 2 h before the luciferase activity assays. The data are presented as the means ± S.D. from three independent experiments. […]
# Scheme for CB12 synthesis. (c) CB12 inhibited NF-κB reporter activity in a dose-dependent manner. The HEK293T cells were transfected with the 5×κB-luciferase and pTK-Renilla reporters. Twenty-four h after transfection, the cells were treated with various concentrations of CB12 for 6 h and then treated with 10 ng/ml TNF-α for 2 h before the luciferase activity assays. (d) […]
# Supplementary Table 3: Screening data of small molecules
# Category Parameter Description
# Assay Type of assay Cell-based
# Target NF-κB signaling pathway
# Primary measurement Detection of Firefly luciferase enzyme activities and Renilla Luciferase expression
# Key reagents 5 × κB-lucieferase and luciferase assay (Progema)
# Assay protocol HEK293T cells were seeded in 24 -well plates and transiently transfected with 20 ng of 5×κB-luciferase and 2 ng of pTK-Renilla reporters using Lipofectamine
# 2000 (Invitrogen) for 18 h. The cells were then incubated with small molecules (10 μM) for 6 hours, and subsequently stimulated with 10 ng/ml TNF -α for 2 h. Luciferase activity of the cell lysates was analysed by the Dual Luciferase Reported Assay System
# (Promega). The Firefly luciferase enzyme activities were determined for NF -κB signaling activities and normalized to Renilla Luciferase expression.
# Library Library size approximately 200
# Library composition natural and synthetic chemical compounds, including cyclopeptides, quinones and terpenes.
# Source State Key Laboratory of Phytochemistry and Plant
# Resources in West China, Kunming Institute of Botany, Chinese Academy of Sciences
# Screen Format 24-well, Corning
# Concentration(s) tested 10 μM
# Reagent/ compound dispensing system Manual
# Detection instrument and software Synergy 2 (BioTek)
# Assay validation/QC Velcade inhibits NF-κB signaling pathway
# Normalization The Firefly luciferase enzyme activities were normalized by Renilla Luciferase expression
# Post-HTS analysis Hit criteria κB-luc/ Renilla ratio < 0.5 standard deviations from the […]
# Hit rate Approximately 15%
# Confirmation of hit purity and structure Compounds were verified by HPLC and NMR
# [2] = system: HEK293T and HeLa cells; test: MTT assay; format: cell-based; conditions: under reporter-assay treatment, high concentrations
# Method: Fig. 1 RA-V inhibits TNF-α- and LPS-induced activation of NF-κB. a Chemical structure of RA-V. b RA-V inhibited the NF-κB signaling pathway in a dose-dependent manner. HEK293T or HeLa cells were transfected with the 5 × κB-luciferase and pTK-Renilla reporters. Twenty-four hours after transfection, the cells were incubated with various concentrations of RA-V for 6 h, and then treated with 10 ng/mL TNF-α for 2 h before the luciferase activity assay and MTT assay. c RA-V reduced TNF-α-induced expression of NF-κB target genes. HEK293T or HeLa cells were treated with various concentrations of RA-V for 24 h and stimulated with 10 ng/mL TNF-α for 2 h. The expression of the NF-κB target genes, IL-8, MCP-1, and E-selectin was measured by quantitative RT-PCR and normalized to GADPH expression. d RA-V inhibited TNF-α-induced p65 phosphorylation, IκBα phosphorylation and IκBα degradation. […] The expression of IL-6 was measured. h RA-V inhibited LPS-induced p65 phosphorylation, IκBα phosphorylation. […] The protein expression was measured. i RA-V inhibited LPS-induced IL-6 production. […] The expression of IL-6 was measured.
# HEK293T cells (5 × 10^3 cells/well) or HeLa cells (3 × 10^3 cells/well) were seeded in a 96-well plate with 100 μL medium and cultured for 12 h in a CO2 incubator. […] After 4 h, the medium was replaced with 150 μL DMSO, and the optical density was measured at […] (Molecular Devices). […]
substance,measurement,setting,value
RA-V,IC50,[1],64.6 nM
same,antiproliferative effect (MTT),[2],only a slight antiproliferative effect
